Structures can show the parent of a compound that is named as a salt. Blank lines part the entries; values can stand above or below the compound they belong to.
How the values were obtained:
[1] = Elution/release of anaesthetic from DePuy bone cement discs (Example 2); type: physicochemical; details: for anaesthetic released over 72 hours, percentage of amount incorporated / anaesthetic released after 72 h, percentage of amount incorporated: discs in 0.2% saline, 37° C.; for effect of particle size on release profile: crystals 75 to 150 um, 150 to 250 um, >250 um, 72 hours
Text: Crystalline lidocaine base from three manufacturers (Sigma, Spectrum, and Wyckoff) was used in these studies. It was observed that the relative proportions of crystals of different size varied substantially among the three brands. Thus, an initial study compared the effect of crystal size on elution and release characteristics using Spectrum lidocaine base. Crystals were sorted using a series of molecular sieves into three groups (small, 75 to 150 um; medium, 150 to 250 um; and large, >250 um) and 2.0 g samples from each group were incorporated into bone cement and tested, as indicated below.
All studies adhered to the following procedure: Forty grams of bone cement (DePuy CMW3 unless otherwise specified) were mixed with 2.0, 0.5, 0.05, or 0.005 g of liquid or crystalline anaesthetic (lidocaine: Sigma, Spectrum, Wyckoff; prilocaine: Colour Your Enzyme, Queen's University, Kingston, Ontario, Canada). The polymerization initiated mixtures were formed into discs 50 mm×1 mm and allowed to cure. The cured discs were then placed in a solution (100 ml) containing 0.2% saline, and kept at 37° C. in a shaking water bath. 1 ml aliquots were taken at 0, 1, 2, 3, 4, 6, 24, 48 and 72 hours and to each was added 1 μg/ml bupivacaine as an internal standard. 50 μl aliquots were subjected to HPLC using a Beckman reverse phase column having a mobile phase of 40 mM ammonium phosphate:acetonitrile (60:40) and a flow rate of 1 ml/min, followed by electrochemical detection, to determine the amount of anaesthetic in each sample.
The percentage of anaesthetic released was calculated from the mass of the bone cement/anaesthetic mixture: anaesthetic (e.g., 0.05 g)+bone cement powder (40 g)+bone cement liquid (17.9 g)=57.95 g. The mean mass of bone cement discs in an individual experiment was, for example, 3.75 g, which corresponds to 15.45 discs per mixture. For elution of, for example, 1000 ug after 72 hours, 1000 ug×15.45 discs=0.015 g anaesthetic released. Since 0.05 g anaesthetic was used, 30.9% was released.

[2] = Elution of lidocaine from bone cement discs (Example 1); type: physicochemical; details: Zimmer or DePuy cement, 0.2% saline, 37° C.
Procedure: Forty grams of bone cement powder from each of three manufacturers: Howmedica (Simplex), Zimmer (Osteobond) and DePuy (CMW3), were mixed with 0.5, 1.0 and 2.0 g of gas-sterilized crystalline lidocaine base (Xylocaine, Astra Pharmaceuticals). The polymerization initiated mixtures were formed into discs 50 mm×1 mm and allowed to harden. The hardened discs were then placed in a stirred solution (100 ml) containing 0.2% saline at 37° C. 100 μl aliquots were taken at 1, 2, 3, 4, 6, 24, 48 and 72 hours and subjected to HPLC with electrochemical detection analysis to determine the lidocaine level in each sample.

[3] = eluted from Howmedica bone cement; knee surgery of Example 3
[4] = lidocaine added to CMW3 vs CMW3
Procedure: Lidocaine (Xylocaine, Astra Pharmaceuticals) was combined with DePuy CMW3 bone cement as described in Example 1, and mechanical properties including dough time, setting time, exotherm, compressive strength, flexural strength, flexural modulus, and impact strength were analyzed.

[5] = 0.05 g anaesthetic per 40 g DePuy CMW3 bone cement, HCl
[6] = 0.5, 1.0, 2.0 g per 40 g Howmedica
[7] = 2.0 g anaesthetic per 40 g DePuy CMW Endurance bone cement

SMILES: CCN(CC)CC(=O)Nc1c(C)cccc1C [crystalline lidocaine HCl, lidocaine HCl]
anaesthetic released over 72 hours, percentage of amount incorporated [1, 5]: about 25%
anaesthetic released over 72 hours, percentage of amount incorporated ([1]; 0.05 g anaesthetic per 40 g DePuy CMW3 bone cement, listed as lidocaine HCl, HCl): about 25%
anaesthetic released over 72 hours, percentage of amount incorporated ([1]; 0.5 g anaesthetic per 40 g DePuy CMW3 bone cement): about 33%
anaesthetic released after 72 h, percentage of amount incorporated ([1]; 0.5 g anaesthetic per 40 g DePuy CMW Endurance bone cement): 23%
effect of particle size on release profile ([1]; DePuy CMW3, HCl): Smaller particles eluted faster

SMILES: CCN(CC)CC(=O)Nc1c(C)cccc1C [crystalline lidocaine base, lidocaine]
amount eluted in relation to amount in the mixture [2, 6]: proportional to the amount of lidocaine in the mixture
period of maximum rate of elution [2, 6]: first 24 hours
time of peak dose in elution curve [2, 6]: ~6 h
period of sustained release ([2]; test period, Howmedica): 72 h
persistence of analgesic effect [3]: at least 24 hours
time from application of bone cement to analgesic effect [3]: ≤ 6 h
effect on compressive strength, flexural strength or flexural modulus [4]: little effect
improvement of impact strength [4]: about 10%
increase of cement setting time [4]: about 40%
increase of doughing time, factor [4]: 3
anaesthetic released over 72 hours, percentage of amount incorporated ([1]; 2.0 g anaesthetic per 40 g DePuy CMW3 bone cement): about 1%
anaesthetic released after 72 h, percentage of amount incorporated [1, 7]: about 0.3%
anaesthetic released over the 72 hour period, percentage of amount incorporated ([1]; 2.0 g sieved crystals, all size groups (75 to 150 um, 150 to 250 um, >250 um), DePuy CMW3): about 1%
effect of particle size on release profile ([1]; DePuy CMW3): no effect of particle size

anaesthetic released after 72 h, percentage of amount incorporated [1, 7]: about 0.4%
SMILES: CCCNC(C)C(=O)Nc1ccccc1C (centres unmarked) [crystalline prilocaine base, prilocaine]

SMILES: CCN(CC)CC(=O)Nc1c(C)cccc1C [liquid lidocaine HCl, lidocaine HCl]
anaesthetic released over 72 hours, percentage of amount incorporated [1, 5]: 0.3%

anaesthetic released after 72 h, percentage of amount incorporated [1, 7]: about 0.3%
initial release of anaesthetic ([1]; 2.0 g in DePuy CMW3, compared with crystalline prilocaine base and both forms of lidocaine base (FIG. 4)): greatest
SMILES: CCCNC(C)C(=O)Nc1ccccc1C (centres unmarked) [liquid prilocaine base, prilocaine]

— patent publication US6713527B2, “Anaesthetic bone cement” (Queen's University at Kingston, priority 1997, dated 2004)
